Several values for one entry are separate records, joined by “and”; a condition that tells them apart may be missing. Identical values can stand only once.
Experiments:
Test in all cases: NCI one-dose screen
Type in all cases: cell-based, human
HOP-92 = details: NSCLC HOP-92, 10 µM single dose
In short: (§1)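 One concentration (10 μM) applied to each line of the full NCI-60 panel; percent growth compared against untreated cells.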

A549/ATCC = details: NSCLC A549/ATCC, 10 µM single dose
In short: as §1

BT-549 = details: Breast BT-549, 10 µM single dose
In short: as §1

OVCAR-4 = details: Ovarian OVCAR-4, 10 µM single dose
In short: as §1

SK-MEL-28 = details: Melanoma SK-MEL-28, 10 µM single dose
In short: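 Compounds were tested at a single dose of 10 μM across the full NCI-60 cell line panel. Growth was expressed as percent growth relative to untreated control cells, reported as percent inhibition.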

SF-539 = details: CNS SF-539, 10 µM single dose
In short: (§2)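 Single dose of 10 μM tested across the full NCI-60 cell panel. Values are percent growth inhibition relative to untreated control cells, following standard NCI methodology.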

UACC-62 = details: Melanoma UACC-62, 10 µM single dose
In short: as §1

UO-31 = details: Renal UO-31, 10 µM single dose
In short: (§3)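 In vitro antiproliferative testing: NCI-60 panel, initial single dose 10 μM, inhibition % derived from percent growth of treated versus untreated control cells.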

CCRF-CEM = details: Leukemia CCRF-CEM, 10 µM single dose
In short: as §1

SF-268 = details: CNS SF-268, 10 µM single dose
In short: as §2

CAKI-1 = details: Renal CAKI-1, 10 µM single dose
In short: as §1

SR = details: Leukemia SR, 10 µM single dose
In short: as §1

TK-10 = details: Renal TK-10, 10 µM single dose
In short: as §1

RPMI-8226 = details: Leukemia RPMI-8226, 10 µM single dose
In short: as §1

MOLT-4 = details: Leukemia MOLT-4, 10 µM single dose
In short: as §2

OVCAR-3 = details: Ovarian OVCAR-3, 10 µM single dose
In short: as §1

HS 578T = details: Breast HS 578T, 10 µM single dose
In short: as §1

DU-145 = details: Prostate DU-145, 10 µM single dose
In short: as §1

HCT-15 = details: Colon HCT-15, 10 µM single dose
In short: as §1

NCI/ADR-RES = details: Ovarian NCI/ADR-RES, 10 µM single dose
In short: as §1

NCI-H23 = details: NSCLC NCI-H23, 10 µM single dose
In short: as §2

KM12 = details: Colon KM12, 10 µM single dose
In short: as §2

HCT-116 = details: Colon HCT-116, 10 µM single dose
In short: as §1

OVCAR-8 = details: Ovarian OVCAR-8, 10 µM single dose
In short: as §1

SNB-19 = details: CNS SNB-19, 10 µM single dose
In short: as §3

HT29 = details: Colon HT29, 10 µM single dose
In short: as §1

SF-295 = details: CNS SF-295, 10 µM single dose
In short: as §1

MDA-MB-435 = details: Melanoma MDA-MB-435, 10 µM single dose
In short: as §1

NCI-H322M = details: NSCLC NCI-H322M, 10 µM single dose
In short: as §1

786-0 = details: Renal 786-0, 10 µM single dose
In short: as §1

NCI-H522 = details: NSCLC NCI-H522, 10 µM single dose
In short: as §3

HL-60(TB) = details: Leukemia HL-60(TB), 10 µM single dose
In short: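 At 10 μM, a single concentration, compounds were evaluated for antiproliferative effect in the NCI 60-line screen, with growth expressed relative to untreated control cells.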

M14 = details: Melanoma M14, 10 µM single dose
In short: as §1

SNB-75 = details: CNS SNB-75, 10 µM single dose
In short: as §3

SK-MEL-2 = details: Melanoma SK-MEL-2, 10 µM single dose
In short: as §3

U251 = details: CNS U251, 10 µM single dose
In short: as §3

Structure (SMILES) | Growth Percent (HOP-92) | Growth Percent (A549/ATCC) | Growth Percent (BT-549) | Growth Percent (OVCAR-4) | Growth Percent (SK-MEL-28) | Growth Percent (SF-539) | Growth Percent (UACC-62) | Growth Percent (UO-31) | Growth Percent (CCRF-CEM) | Growth Percent (SF-268) | Growth Percent (CAKI-1) | Growth Percent (SR) | Growth Percent (TK-10) | Growth Percent (RPMI-8226) | Growth Percent (MOLT-4) | Growth Percent (OVCAR-3) | Growth Percent (HS 578T) [%] | Growth Percent (DU-145) | Growth Percent (HCT-15) | Growth Percent (NCI/ADR-RES) | also measured
Cc1c(C(=O)NCCC(=O)NO)sc2ncnc(Nc3ccc(NC(=O)Nc4cccc(C(F)(F)F)c4)cc3)c12 [Compound 11c, 1–(4-(6-((3-(hydroxyamino)-3-oxopropyl)carbamoyl)-5-methylthieno[2,3-d]pyrimidin-4-ylamino)phenyl)-3–(3-(trifluoromethyl)phenyl)urea] | 115.4% | 103.7% and 103.74% | 137.1% and 137.18% | 105.0% and 105.02% | 109.7% and 109.72% | 78.9% and 78.96% | 99.6% and 99.62% | 87.0% and 87.09% | 98.8% and 98.82% | 93.3% and 93.37% | 99.3% and 99.31% | 101.0% and 101.07% | 140.4% and 140.42% | 102.2% and 102.26% | 105.7% and 105.79% | 111.6% | 93.51 | 105.3% and 105.34% | 101.2% and 101.22% | 103.1% and 103.18% | Growth Percent (NCI-H23): 100.0% and 100.01%; Growth Percent (KM12): 100.1% and 100.15%; Growth Percent (HCT-116): 107.9% and 107.91%; Growth Percent (OVCAR-8): 102.2% and 102.23%; Growth Percent (SNB-19): 93.6% and 93.62%; Growth Percent (HT29): 109.8% and 109.85%; Growth Percent (SF-295): 91.8% and 91.82%; Growth Percent (MDA-MB-435): 103.1% and 103.18%; Growth Percent (NCI-H322M): 103.7% and 103.74%; Growth Percent (786-0): 115.6% and 115.64%; Growth Percent (NCI-H522): 94.3% and 94.36%; Growth Percent (HL-60(TB)): 105.0% and 105.04%; Growth Percent (M14): 107.0% and 107.01%; Growth Percent (SNB-75): 78.8%; Growth Percent (SK-MEL-2): 108.7% and 108.73%; Growth Percent (U251): 80.2% and 80.22%
COc1cccc(NC(=O)Nc2ccc(Nc3ncnc4sc(C(=O)NCCCC(=O)NO)c(C)c34)cc2)c1 [Compound 12b, 1–(4-(6-((4-(hydroxyamino)-4-oxobutyl)carbamoyl)-5-methylthieno[2,3-d]pyrimidin-4-ylamino)phenyl)-3–(3-methoxyphenyl)urea] | 112.3% and 112.35% | 105.8% and 105.84% | 105.5% and 105.57% | 99.9% and 99.93% | 104.0% and 104.05% | 98.2% and 98.26% | 95.3% and 95.39% | 82.0% and 82.06% | 103.5% and 103.52% | 95.1% | 97.1% and 97.14% | 108.2% and 108.25% | 107.7% and 107.72% | 106.6% and 106.68% | 104.7% and 104.76% | 99.3% and 99.38% | 99.2 | 98.5% and 98.54% | 99.6% and 99.68% | 101.6% and 101.63% | Growth Percent (NCI-H23): 97.5% and 97.53%; Growth Percent (KM12): 101.3% and 101.38%; Growth Percent (HCT-116): 99.2% and 99.29%; Growth Percent (OVCAR-8): 103.6% and 103.67%; Growth Percent (SNB-19): 97.9%; Growth Percent (HT29): 95.3%; Growth Percent (SF-295): 102.5% and 102.51%; Growth Percent (MDA-MB-435): 100.9%; Growth Percent (NCI-H322M): 95.9% and 95.94%; Growth Percent (786-0): 105.9%; Growth Percent (NCI-H522): 81.7% and 81.76%; Growth Percent (HL-60(TB)): 102.4%; Growth Percent (M14): 104.0% and 104.04%; Growth Percent (SNB-75): 90.6% and 90.62%; Growth Percent (SK-MEL-2): 94.6% and 94.66%; Growth Percent (U251): 92.8% and 92.88%
